Data on 24 molecules can be found in US20220144848A1, “SUBSTITUTED OXOPYRIDINE DERIVATIVES” (Bayer Aktiengesellschaft, priority 2018, published 2022).

The target in one assay is T1, human plasma kallikrein (Homo sapiens, UniProt P03952).
T1 construct: purchased Kordia
Description: Determination of the plasma kallikrein activity (fluorogenic peptide substrate H-Pro-Phe-Arg-AMC). The class given is biochemical. The conditions noted are these: plasma kallikrein from Kordia, 15 min preincubation, 30 min at 22° C., fluorescence; some as mean values from multiple determinations. How it is done: To determine the plasma kallikrein inhibition of the substances according to the invention, a biochemical test system is used which utilizes the reaction of a peptidic plasma kallikrein substrate to determine the enzymatic activity of human plasma kallikrein. Here, plasma kallikrein cleaves from the peptidic plasma kallikrein substrate the C-terminal aminomethylcoumarin (AMC), the fluorescence of which is measured. The determinations are carried out in microtitre plates.
Test substances are dissolved in dimethyl sulfoxide and serially diluted in dimethyl sulfoxide (3000 μM to 0.0078 μM; resulting final concentrations in the test: 50 μM to 0.00013 μM). In each case 1 μl of the diluted substance solutions is placed into the wells of white microtitre plates from Greiner (384 wells). 20 μl of assay buffer (50 mM Tris/HCl pH 7.4; 100 mM sodium chloride solution; 5 mM of calcium chloride solution; 0.1% of bovine serum albumin) and 20 μl of plasma kallikrein from Kordia (0.6 nM in assay buffer) are then added successively. After 15 min of incubation, the enzyme reaction is started by addition of 20 μl of the substrate H-Pro-Phe-Arg-AMC dissolved in assay buffer (10 μM in assay buffer) from Bachem, the mixture is incubated at room temperature (22° C.) for 30 min and fluorescence is then measured (excitation: 360 nm, emission: 460 nm). The measured emissions of the test batches with test substance are compared to those of control batches without test substance (only dimethyl sulfoxide instead of test substance in dimethyl sulfoxide), and IC50 values are calculated from the concentration/activity relationships. Activity data from this test are listed in Table B below (some as mean values from multiple independent individual determinations): […]

The target in a further assay is T2, human factor XIa (Homo sapiens, UniProt P03951).
T2 construct: purchased Kordia
Put plainly: Measurement of FXIa inhibition (fluorogenic peptide substrate Boc-Glu(OBzl)-Ala-Arg-AMC). It is filed as biochemical. The conditions noted are these: factor XIa from Kordia, 15 min preincubation, 30 min at 22° C., fluorescence; some as mean values from multiple determinations. How it is done: The factor XIa inhibition of the substances according to the invention is determined using a biochemical test system which utilizes the reaction of a peptidic factor XIa substrate to determine the enzymatic activity of human factor XIa. Here, factor XIa cleaves from the peptidic factor XIa substrate the C-terminal aminomethylcoumarin (AMC), the fluorescence of which is measured. The determinations are carried out in microtitre plates.
Test substances are dissolved in dimethyl sulfoxide and serially diluted in dimethyl sulfoxide (3000 μM to 0.0078 μM; resulting final concentrations in the test: 50 μM to 0.00013 μM). In each case 1 μl of the diluted substance solutions is placed into the wells of white microtitre plates from Greiner (384 wells). 20 μl of assay buffer (50 mM of Tris/HCl pH 7.4; 100 mM of sodium chloride; 5 mM of calcium chloride; 0.1% of bovine serum albumin) and 20 μl of factor XIa from Kordia (0.45 nM in assay buffer) are then added successively. After 15 min of incubation, the enzyme reaction is started by addition of 20 μl of the factor XIa substrate Boc-Glu(OBzl)-Ala-Arg-AMC dissolved in assay buffer (10 μM in assay buffer) from Bachem, the mixture is incubated at room temperature (22° C.) for 30 min and fluorescence is then measured (excitation: 360 nm, emission: 460 nm). The measured emissions of the test batches with test substance are compared to those of control batches without test substance (only dimethyl sulfoxide instead of test substance in dimethyl sulfoxide), and IC50 values are calculated from the concentration/activity relationships.

T1 sequence (P03952 391-638 limits assumed): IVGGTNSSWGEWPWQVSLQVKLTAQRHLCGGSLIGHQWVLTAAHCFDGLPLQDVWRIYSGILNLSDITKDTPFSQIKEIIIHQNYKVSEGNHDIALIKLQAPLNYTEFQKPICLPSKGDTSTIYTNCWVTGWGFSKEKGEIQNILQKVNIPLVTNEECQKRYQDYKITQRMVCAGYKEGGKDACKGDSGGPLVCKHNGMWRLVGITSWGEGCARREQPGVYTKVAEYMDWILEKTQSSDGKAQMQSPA
T1 sequence (P03952 20-390 partner limits assumed): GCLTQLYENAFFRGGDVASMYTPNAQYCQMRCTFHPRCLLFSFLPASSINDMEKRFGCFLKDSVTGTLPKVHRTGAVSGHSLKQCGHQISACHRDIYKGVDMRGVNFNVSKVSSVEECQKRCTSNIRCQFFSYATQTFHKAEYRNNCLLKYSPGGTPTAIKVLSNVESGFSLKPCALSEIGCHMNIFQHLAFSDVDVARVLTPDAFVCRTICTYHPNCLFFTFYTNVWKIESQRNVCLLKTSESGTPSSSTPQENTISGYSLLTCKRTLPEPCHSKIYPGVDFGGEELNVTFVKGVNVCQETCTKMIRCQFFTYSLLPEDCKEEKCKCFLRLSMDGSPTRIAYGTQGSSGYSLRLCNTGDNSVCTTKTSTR
T2 sequence (P03951 388-625 limits assumed): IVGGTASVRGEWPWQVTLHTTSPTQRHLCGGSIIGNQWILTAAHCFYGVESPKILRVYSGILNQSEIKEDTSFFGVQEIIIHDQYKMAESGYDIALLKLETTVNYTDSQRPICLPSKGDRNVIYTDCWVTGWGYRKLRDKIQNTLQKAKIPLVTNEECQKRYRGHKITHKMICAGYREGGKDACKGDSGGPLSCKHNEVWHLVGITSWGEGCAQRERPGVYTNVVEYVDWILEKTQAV
T2 sequence (P03951 19-387 partner limits assumed): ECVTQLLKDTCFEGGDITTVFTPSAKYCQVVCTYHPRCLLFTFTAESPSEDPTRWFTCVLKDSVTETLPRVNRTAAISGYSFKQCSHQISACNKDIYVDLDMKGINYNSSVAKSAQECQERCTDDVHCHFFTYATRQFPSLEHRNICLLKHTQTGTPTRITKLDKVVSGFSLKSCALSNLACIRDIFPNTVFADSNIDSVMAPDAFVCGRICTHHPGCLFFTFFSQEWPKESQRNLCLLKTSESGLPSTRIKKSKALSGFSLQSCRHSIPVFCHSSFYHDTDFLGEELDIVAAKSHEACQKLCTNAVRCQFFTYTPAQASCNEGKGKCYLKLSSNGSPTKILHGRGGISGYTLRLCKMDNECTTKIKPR

For orientation: IC50 means the concentration at which inhibition is half-maximal. A higher IC50 goes with weaker potency. As to `C[C@@H]1Cc2ccc(Cl)cc2-c2cc(=O)n([C@@H](C[C@@H]3CCCCO3)C(=O)Nc3ccc(C(N)=O)c(F)c3)cc2[C@H](C)O1` (single isomer, unassigned) [Example 72], the IC50 came out at 65 nM against human plasma kallikrein and 2.5 nM against human factor XIa. As for `CC[C@@H](C(=O)Nc1ccc(C(N)=O)c(F)c1)n1cc2c(cc1=O)-c1cc(Cl)ccc1C[C@@H](C)O[C@H]2C` (single isomer, unassigned) [Example 71], the IC50 stood at 225 nM against human plasma kallikrein and 3.5 nM on human factor XIa. Consider `CO[C@@H](C)C[C@@H](C(=O)Nc1ccc(C(N)=O)cc1)n1cc2c(cc1=O)-c1c(ccc(Cl)c1Cl)C[C@@H](C(F)(F)F)OC2` (single isomer, unassigned) [Example 80], for which the figures for the IC50 against human plasma kallikrein and at human factor XIa were 280 nM and 9.5 nM, respectively. The corresponding values for `CC1Cc2ccc(Cl)cc2-c2cc(=O)n(C(CCOC(C)(C)C)C(=O)Nc3ccc(C(N)=O)c(F)c3)cc2CO1` (mixture of isomers) [Example 21, 4-{[4-tert-Butoxy-2-(11-chloro-7-methyl-2-oxo-7,8-dihydro-2H-[3]benzoxocino[5,6-c]pyridin-3(5H)-yl)butanoyl]amino}-2-fluorobenzamide] are 830 nM and 63 nM. Take `NC(=O)c1ccc(NC(=O)C(C[C@@H]2CCCCO2)n2cc3c(cc2=O)-c2cc(Cl)ccc2CC(CO)OC3)cc1` (mixture of isomers) [Example 34, 4-{2-[11-Chloro-7-(hydroxymethyl)-2-oxo-7,8-dihydro-2H-[3]benzoxocino[5,6-c]pyridin-3(5H)-yl]-3-[(2S)-tetrahydro-2H-pyran-2-yl]propanamido}benzamide]: the IC50 on human plasma kallikrein was 490 nM; on human factor XIa it was 6.9 nM. With `CC[C@@H]1Cc2ccc(Cl)cc2-c2cc(=O)n([C@@H](C[C@@H]3CCCCO3)C(=O)Nc3ccc(C(N)=O)c(F)c3)cc2CO1` (single isomer, unassigned) [Example 31], the values for the IC50 against human plasma kallikrein and against human factor XIa were 980 nM and 13 nM, respectively. In the case of `CC1Cc2ccc(Cl)cc2-c2cc(=O)n(C(C[C@@H]3COCCO3)C(=O)Nc3ccc(C(N)=O)c(F)c3)cc2CO1` (mixture of isomers) [Example 7, 4-({2-(11-Chloro-7-methyl-2-oxo-7,8-dihydro-2H-[3]benzoxocino[5,6-c]pyridin-3(5H)-yl)-3-[(2R)-1,4-dioxan-2-yl]propanoyl}amino)-2-fluorobenzamide], the results for the IC50 on human plasma kallikrein and against human factor XIa were 780 nM and 14 nM, respectively. As to `NC(=O)c1ccc(NC(=O)C(C[C@@H]2COCCO2)n2cc3c(cc2=O)-c2cc(Cl)ccc2CC(C(F)(F)F)OC3)cc1F` (mixture of isomers) [Example 56, 4-({2-[11-Chloro-2-oxo-7-(trifluoromethyl)-7,8-dihydro-2H-[3]benzoxocino[5,6-c]pyridin-3(5H)-yl]-3-[(2R)-1,4-dioxan-2-yl]propanoyl}amino)-2-fluorobenzamide], the IC50 against human plasma kallikrein worked out at 740 nM; at human factor XIa it was 7.6 nM.

Consider `C[C@@H]1Cc2ccc(Cl)cc2-c2cc(=O)n([C@@H](CCOC(F)F)C(=O)Nc3ccc(C(N)=O)cc3)cc2CO1` (single isomer, unassigned) [Example 17], for which the results for the half-inhibitory concentration (IC50) against human plasma kallikrein and against human factor XIa were 72 nM and 2 nM, respectively.

`CC(C)C1Cc2ccc(Cl)cc2-c2cc(=O)n(C(C[C@@H]3COCCO3)C(=O)Nc3ccc4nn(C)nc4c3)cc2CO1` (mixture of isomers) [Example 44, 2-(11-Chloro-7-isopropyl-2-oxo-7,8-dihydro-2H-[3]benzoxocino[5,6-c]pyridin-3(5H)-yl)-3-[(2R)-1,4-dioxan-2-yl]-N-(2-methyl-2H-benzotriazol-5-yl)propanamide]: the IC50 on human plasma kallikrein worked out at 1600 nM; at human factor XIa, 49 nM. For `CO[C@@H](C)C[C@@H](C(=O)Nc1ccc(C(N)=O)cc1)n1cc2c(cc1=O)-c1c(ccc(Cl)c1F)C[C@@H](C(F)(F)F)OC2` (single isomer, unassigned) [Example 78], the IC50 at human plasma kallikrein was 74 nM; against human factor XIa, 1.5 nM.

Regarding `CC(C)[C@@H]1Cc2ccc(Cl)cc2-c2cc(=O)n([C@@H](C[C@@H]3COCCO3)C(=O)Nc3ccc(C(N)=O)c(F)c3)cc2CO1` (single isomer, unassigned) [Example 41], the IC50 stood at 1600 nM against human plasma kallikrein and 10 nM at human factor XIa. In the case of `NC(=O)c1ccc(NC(=O)C(C[C@@H]2CCCCO2)n2cc3c(cc2=O)-c2cc(Cl)ccc2CC(CO)OC3)cc1F` (mixture of isomers) [Example 32, 4-{2-[11-Chloro-7-(hydroxymethyl)-2-oxo-7,8-dihydro-2H-[3]benzoxocino[5,6-c]pyridin-3(5H)-yl]-3-[(2S)-tetrahydro-2H-pyran-2-yl]propanamido}-2-fluorobenzamide], the IC50 is 1300 nM on human plasma kallikrein and 30 nM against human factor XIa. The corresponding values for `CC(C)OCC[C@@H](C(=O)Nc1ccc(C(N)=O)cc1)n1cc2c(cc1=O)-c1cc(Cl)ccc1C[C@@H](C)OC2` (single isomer, unassigned) [Example 20] are 93 nM and 6.6 nM. As for `NC(=O)c1ccc(NC(=O)[C@H](C[C@@H]2CCCCO2)n2cc3c(cc2=O)-c2cc(Cl)ccc2C[C@@H](C(F)(F)F)OC3)cn1` (single isomer, unassigned) [Example 53], the IC50 is 300 nM against human plasma kallikrein and 2.3 nM against human factor XIa. Take `C[C@@H]1Cc2ccc(Cl)cc2-c2cc(=O)n([C@@H](CCOC(C)(C)C)C(=O)Nc3ccc(C(N)=O)c(F)c3)cc2CO1` (single isomer, unassigned) [Example 22]: the IC50 on human plasma kallikrein stood at 280 nM; at human factor XIa it was 19 nM. Regarding `CC1Cc2ccc(Cl)cc2-c2cc(=O)n(C(C[C@@H]3COCCO3)C(=O)Nc3ccc(C(N)=O)cc3)cc2CO1` (mixture of isomers) [Example 9, 4-({2-(11-Chloro-7-methyl-2-oxo-7,8-dihydro-2H-[3]benzoxocino[5,6-c]pyridin-3(5H)-yl)-3-[(2R)-1,4-dioxan-2-yl]propanoyl}amino)benzamide], the figures for the IC50 at human plasma kallikrein and on human factor XIa were 260 nM and 4.5 nM, respectively. Turning to `C[C@@H]1Cc2ccc(Cl)cc2-c2cc(=O)n([C@@H](C[C@@H]3CCCCO3)C(=O)Nc3ccc(C(N)=O)nc3)cc2CO1` (single isomer, unassigned) [Example 4], the IC50 at human plasma kallikrein amounted to 420 nM; on human factor XIa, 2.4 nM. Turning to `CC(C)[C@@H]1Cc2ccc(Cl)cc2-c2cc(=O)n([C@@H](C[C@@H]3COCCO3)C(=O)Nc3ccc(C(N)=O)cc3)cc2CO1` (single isomer, unassigned) [Example 43], the figures for the IC50 at human plasma kallikrein and at human factor XIa were 380 nM and 1.7 nM, respectively. With `COCC[C@@H](C(=O)Nc1ccc(C(N)=O)cc1)n1cc2c(cc1=O)-c1cc(Cl)ccc1C[C@@H](C(F)(F)F)OC2` (single isomer, unassigned) [Example 63], the IC50 stood at 110 nM against human plasma kallikrein and 2.5 nM at human factor XIa. Turning to `C[C@@H]1Cc2ccc(Cl)cc2-c2cc(=O)n([C@@H](C[C@@H]3CCCCO3)C(=O)Nc3ccc(C(N)=O)cc3)cc2CO1` (single isomer, unassigned) [Example 6], the results for the 50% inhibitory concentration (IC50) against human plasma kallikrein and on human factor XIa were 140 nM and 1.4 nM, respectively. As to `NC(=O)c1ccc(NC(=O)[C@H](C[C@@H]2CCCCO2)n2cc3c(cc2=O)-c2cc(Cl)ccc2C[C@@H](CO)OC3)cc1F` (single isomer, unassigned) [Example 33], the IC50 at human plasma kallikrein turned out to be 480 nM; on human factor XIa, 9.1 nM. With `C[C@@H]1Cc2ccc(Cl)cc2-c2cc(=O)n([C@@H](C[C@H](C)OC(F)F)C(=O)Nc3ccc(C(N)=O)cc3)cc2CO1` (single isomer, unassigned) [Example 19], the IC50 on human plasma kallikrein was 110 nM; against human factor XIa, 3.6 nM. At human plasma kallikrein, `CC(C)[C@@H]1Cc2ccc(Cl)cc2-c2cc(=O)n([C@@H](C[C@@H]3CCCCO3)C(=O)Nc3ccc(C(N)=O)c(F)c3)cc2CO1` (single isomer, unassigned) [Example 39] displayed an IC50 of 2000 nM.
